Here are results for 1 compound from patent US20240050587A1, “LIPOSOMES COMPRISING ANTI-LOX ANTIBODY” (ISTITUTO SCIENTIFICO ROMAGNOLO PER LO STUDIO E LA CURA DEI …, priority 2019, published 2024).

Counter-ions that a name gives are not always drawn.

For data set [1], the system named is collagen scaffold cultured with MDA-MB-231. The data set can be described thus: Mechanical testing: stiffness of collagen scaffolds under unconfined uniaxial compression. The data set is classed as cell-based, human. The conditions noted are these: 72 h of treatment; CTR 67.3 kPa. An excerpt: As previously described, an in-house built instrument prototype was developed by the inventors to apply a state of unconfined uniaxial compression to the collagen scaffolds. The applied stress (r, in kPa) could then be analyzed by dividing the applied force by the cross section of the sample. The applied force consisted of a pre-load of 1.41 kPa held constantly for 30 s; the full load of 5.97 kPa was then constantly applied for 30 s. The stiffness (compressive modulus, in kPa) of the collagen scaffold cultured with MDA-MB-231 and exposed for 72 h to all treatment groups was computed as the ratio between the increment of stress and increment of strain from the preload to the full load values. The samples were analyzed in air immediately after having been removed from the PBS where they were soaked. Five samples of each type were tested and each specimen was tested 10 times.

Data set [2] relates to MDA-MB-231 orthotopic xenograft. As to the kind of experiment: In vivo drug testing: tumor growth in orthotopic xenograft (caliper and BLI). Further details: species or system NU/NU nude mice. The conditions noted are these: weekly i.v. 3.24 mg/Kg; caliper; mean ± spread. Here is the method:
MDA-MB-231 labeled with luciferase probe (2×10^6 cells/100 μl matrigel) were orthotopically injected into the right mammary fad pad of female immunodeficient NU/NU nude mice [NU-Foxn1nu] 8-10 weeks old (Charles River Laboratories, Wilmington, MA, USA). NU/NU nude mice were housed five per cage at the HMRI animal facility, there were maintained under pathogen free conditions and on low-fluorescence diet according to the National Institutes of Health guidelines.
(§1) Tumor size and body weight were measured with caliper and a digital balance once a week. Tumor volume was calculated according to the formula (W×W×L)/2, where W and L represent the width and the length of tumor, respectively. Body weight change % was calculated were calculated by comparing weights at the start and end of therapy throught the formula throught the formula weight DO/weight D33%.
Furthermore, the impact on tumor growth was validated by performing bioluminescence imaging (BLI) of TNBC tumors at Day 0 and Day 33 (FIG. 4B, Figure S4 supportive information). This was performed in order to support the caliper measurements since the bioluminescent signal obtained from BLI is directly related to the viability of cells and could serve as metric to evaluate impact of therapy. The BLI quantification percentage was calculated throught the formula BLI DO/BLI D33%. […]

Data set [3] has the same test system. As to the kind of experiment: Histological analysis (H&E) and collagen quantification of explanted tumors. The data set is classed as in vivo, NU/NU nude mice. The conditions noted are these: H&E sections of explanted tumors, 55 days post treatment; control 5%. Here is the method: (§2) Explanted mice organs (heart, liver, spleen, kidneys, lungs, tibia) and tumors were washed twice with PBS, embedded in a cryomold in O.C.T. (Tissue-Tek® O.C.T. Compound, Sakura® Finetek), and frozen at −80 degree. Ten μm-thick slides were obtained cutting tissues block with a cryostat at −20 degree. The slides were then stored at −20 degree until the analysis.
(§3) Hematoxylin and eosin (H&E) staining was performed to evaluate the efficacy and safety of Lipo-EPI-LOX compared to the other treatment groups. Briefly the organs and tumor slides were thawed, hydrated and stained with H&E following the manufacturer's instructions. The stained slides were analyzed with an optical Zeiss Axioskop microscope (Carl Zeiss, Gottingen, Germany) equipped with a Polaroid camera.
Tumors frozen 5-μm-thick slides were fixed for 5 min in formalin 10% solution, then washed and stained with Weigert's haematoxylin. Then the sections were stained with 0.1% (Direct Red 80) (Sigma Aldrich) picrosirius red in saturated aqueous solution of picric acid. The stained slides were analyzed with the NIS Elements software (Nikon Corporation, Tokyo, Japan).

Data set [4] has the same test system. The data set can be described thus: Survival study (Kaplan-Meier). The data set is classed as in vivo, NU/NU nude mice. Conditions: 55 days post treatment. The method, then: Mice (n=10 per cohort) were sacrificed when the tumor volume reached 2000 mm^3 or when showing signs of morbidity. Data were analyzed using the Kaplan-Meier method. Comparisons among different treatment groups were performed using the log rank test for trend and considered significant with a p value less than 0.05.

The nature of data set [5]: Safety: body weight change and H&E histology of hearts. The data set is classed as in vivo, NU/NU nude mice. Here is the method: as §1, §2, §3
For data set [6] the following is noted: human, clinical data [28]; cited from earlier work.

Take `COc1cccc2c1C(=O)c1c(O)c3c(c(O)c1C2=O)C[C@@](O)(C(=O)CO)C[C@@H]3O[C@H]1C[C@H](N)[C@@H](O)[C@H](C)O1` [Free EPI, epirubicin hydrochloride]: the “average compressive modulus (scaffold stiffness)” value in data set [1] is 64.38 kPa. In addition, in data set [2], the “tumor volume (tumor growth)” value worked out at 1029 mm^3. The compound also yielded a necrotic tumor cells in data set [3] of 20%. Besides, the survival entry in data set [4] is “less than 50%”. For the same compound, in data set [5] (H&E hearts), the “inflammatory infiltrate in myocardial tissue (cardiotoxicity)” value is on record as “increment of cellularity due to the inflammatory infiltrate”. Also, in data set [5] (end of study, D33 versus D0, CTR 3.3%), the “increase in body weight” value amounted to 3.7%. Besides, the plasma peak concentration in data set [6] is 3.4 µg/mL.
